As usually defined, the EC50 is the concentration needed to bring the measured effect to its halfway point.

Structures can show the parent of a compound that is named as a salt. Where two headings read alike, the source gives them in different places. A value given as a limit tells only on which side of the number the result lay.

This is an account of results in patent US20120065187A1 (ALCON RESEARCH, LTD, priority 2008, published 2012).

One test deals with T1, human H4 (Homo sapiens, UniProt Q9H3N8).
T1 construct: host or cells: CHO-K1
T1 sequence (Q9H3N8 whole entry): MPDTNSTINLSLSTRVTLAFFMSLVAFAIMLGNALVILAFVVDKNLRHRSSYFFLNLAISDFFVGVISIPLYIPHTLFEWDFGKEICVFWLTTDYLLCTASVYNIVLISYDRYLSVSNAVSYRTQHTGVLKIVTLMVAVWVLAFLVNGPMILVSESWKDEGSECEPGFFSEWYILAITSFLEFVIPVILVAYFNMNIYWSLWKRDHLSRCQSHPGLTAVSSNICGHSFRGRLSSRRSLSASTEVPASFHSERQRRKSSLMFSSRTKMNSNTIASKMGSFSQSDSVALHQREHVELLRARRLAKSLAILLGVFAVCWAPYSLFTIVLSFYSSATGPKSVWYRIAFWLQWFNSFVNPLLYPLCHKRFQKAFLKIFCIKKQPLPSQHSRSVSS
The test can be described thus: In vitro histamine receptor cell-based assay (aequorin bioluminescence), H4 antagonism. Here is the method: (§1) The cell-based assays utilize an aequorin dependent bioluminescence signal. Doubly-transfected, stable CHO-K1 cell lines expressing human H1 or H4, mitochondrion-targeted aequorin, and (H4 only) human G protein Gα16 are obtained from Perkin-Elmer. Cells are maintained in F12 (Ham's) growth medium, containing 10% (vol./vol.) fetal bovine serum, penicillin (100 IU/mL), streptomycin (0.1 mg/mL), zeocin (0.25 mg/mL) and geneticin (0.40 mg/mL). Cell media components are from Invitrogen, Inc. One day prior to assay, the growth medium is replaced with the same, excluding zeocin and geneticin.
(§2) For assay preparation, growth medium is aspirated, and cells are rinsed with calcium-free, magnesium-free phosphate-buffered saline, followed by two to three minute incubation in Versene (Invitrogen, Inc.) at 37° C. Assay medium (DMEM:F12 [50:50], phenol-red free, containing 1 mg/mL protease-free bovine serum albumin) is added to collect the released cells, which are then centrifuged. The cell pellet is re-suspended in assay medium, centrifuged once more, and re-suspended in assay medium to a final density of 5×10^6 cells/mL. Coelenterazine-h dye (500 μM in ethanol) is added to a final concentration of 5 μM, and mixed immediately. The conical tube containing the cells is then wrapped with foil to protect the light-sensitive dye. The cells are incubated for four hours further at room temperature (approximately 21° C.) with end-over-end rotation to keep them in suspension.
Just before assay, the dye-loaded cells are diluted to 0.75×10^6 cells/mL (H1 receptor) or 1.5×10^6 cells/mL (H4 receptor) with additional assay medium. Cells are dispensed to 1536 well micro-titer plates at 3 μL/well. To assay receptor antagonism, 60 nl of 100× concentration test compounds in 100% dimethyl sulfoxide (DMSO) are dispensed to the wells, one compound per well, by passive pin transfer, and the plates are incubated for 15 minutes at room temperature. […] The pipette dispenses 3 μL/well of agonist (histamine, at twice the final concentration, where final concentration is a previously determined EC80) in assay medium, with concurrent bioluminescence detection. Agonist activity of test compounds is excluded by separate assays that measure response to test compounds immediately, without added histamine agonist.
(§3) CCD image capture on the Lumilux includes a 5 second baseline read prior to agonist addition, and generally a 40 second read per plate after agonist addition. A decrease in bioluminescence signal (measured either as area-under-the-curve, or maximum signal amplitude minus minimum signal amplitude) correlates with receptor antagonism in a dose dependent manner. The negative control is DMSO lacking any test compound. For antagonist assays, the positive controls are diphenhydramine (2-Diphenylmethoxy-N,N-dimethylethylamine, 10 μM final concentration, H1 receptor) or JNJ7777120 (1-[(5-Chloro-1H-indol-2-yl)carbonyl]-4-methyl-piperazine, 10 μM final concentration, H4 receptor). Efficacy is measured as a percentage of positive control activity.

The target of the next test is T2, human H1 (Homo sapiens, UniProt P35367).
T2 construct: host or cells: CHO-K1
T2 sequence (P35367 whole entry): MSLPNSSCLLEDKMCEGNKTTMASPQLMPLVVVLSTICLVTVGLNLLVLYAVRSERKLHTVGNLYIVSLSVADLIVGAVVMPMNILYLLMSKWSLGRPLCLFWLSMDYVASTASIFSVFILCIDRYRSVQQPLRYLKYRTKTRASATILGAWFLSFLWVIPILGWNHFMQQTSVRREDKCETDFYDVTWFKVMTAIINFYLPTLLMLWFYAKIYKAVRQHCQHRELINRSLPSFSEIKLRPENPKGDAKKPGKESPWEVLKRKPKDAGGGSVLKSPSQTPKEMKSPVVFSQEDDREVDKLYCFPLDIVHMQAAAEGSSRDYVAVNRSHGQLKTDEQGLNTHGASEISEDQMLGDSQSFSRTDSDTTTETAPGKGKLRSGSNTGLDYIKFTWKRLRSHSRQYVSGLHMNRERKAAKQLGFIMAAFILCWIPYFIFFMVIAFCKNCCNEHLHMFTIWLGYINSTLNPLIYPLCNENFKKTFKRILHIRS
The test can be described thus: In vitro histamine receptor cell-based assay (aequorin bioluminescence), H1 antagonism. The conditions noted are these: CHO-K1 cells expressing human H1 and aequorin; histamine at EC80; read-out: H1 Antagonist EC50. The method, then:
as §1, §2
Just before assay, the dye-loaded cells are diluted to 0.75×10^6 cells/mL (H1 receptor) or 1.5×10^6 cells/mL (H4 receptor) with additional assay medium. Cells are dispensed to 1536 well micro-titer plates at 3 μL/well. To assay receptor antagonism, 60 nl of 100× concentration test compounds in 100% dimethyl sulfoxide (DMSO) are dispensed to the wells, one compound per well, by passive pin transfer, and the plates are incubated for 15 minutes at room temperature. Assay plates are then transferred to a Lumilux bioluminescence plate reader (Perkin-Elmer) equipped with an automated 1536 disposable tip pipette. The pipette dispenses 3 μL/well of agonist (histamine, at twice the final concentration, where final concentration is a previously determined EC80) in assay medium, with concurrent bioluminescence detection. Agonist activity of test compounds is excluded by separate assays that measure response to test compounds immediately, without added histamine agonist.
as §3

[1] abbreviates: CHO-K1 cells expressing human H4, aequorin and Gα16, histamine at EC80, read-out: H4 Antagonist EC50.

For `Cn1cc2c(n1)c(N1CCNCC1)nc1ccc(Cl)cc12` [Example 151, 8-Chloro-2-methyl-4-(piperazin-1-yl)-2H-pyrazolo[3,4-c]quinoline], the concentration giving a half-maximal response (EC50) at human H4 (setting [1]) and at human H1 was less than 10 µM throughout.

For the compound `Fc1cc(Cl)cc2c1nc(N1CCNCC1)c1nncn12` [Example 196, 8-chloro-6-fluoro-4-(piperazin-1-yl)-[1,2,4]triazolo[4,3-a]quinoxaline], the EC50 was less than 10 µM on human H4 (setting [1]) and more than 10 µM at human H1.

As for `CN1CCN(c2nc3cc(Br)ccc3n3nnnc23)CC1` [Example 195, 7-bromo-4-(4-methylpiperazin-1-yl)tetrazolo[1,5-a]quinoxaline], the half-maximal effective concentration (EC50) is less than 10 µM on human H4 (setting [1]) and more than 10 µM on human H1.

On to `CC(C)Nc1ccc2nc(N3CCN(C)CC3)c3nncn3c2c1` [Example 176, N-isopropyl-4-(4-methylpiperazin-1-yl)-[1,2,4]triazolo[4,3-a]quinoxalin-8-amine], for which the EC50 on human H4 (setting [1]) and at human H1 was more than 10 µM in each case.

On to `Cc1nc2c(N3CCN(C)CC3)nc3cc(F)c(Cl)cc3c2o1` [Example 216, 8-chloro-7-fluoro-2-methyl-4-(4-methylpiperazin-1-yl)oxazolo[4,5-c]quinoline], for which the EC50 on human H4 (setting [1]) is less than 10 µM; on human H1 it was more than 10 µM.

Turning to `CN1CCN(c2nc3ccc(C(F)(F)F)cc3c3nc(C(F)(F)F)nn23)CC1` [Example 120, 5-(4-methylpiperazin-1-yl)-2,9-bis(trifluoromethyl)-[1,2,4]triazolo[1,5-c]quinazoline], the concentration giving a half-maximal response (EC50) is less than 10 µM on human H4 (setting [1]) and more than 10 µM on human H1.

As for `Cc1nc2c3cc(Cl)c(Cl)cc3nc(N3CCN(C)CC3)n2n1` [Example 93, 8,9-Dichloro-2-methyl-5-(4-methylpiperazin-1-yl)-[1,2,4]triazolo[1,5-c]quinazoline], the 50% effective concentration (EC50) on human H4 (setting [1]) was less than 10 µM; at human H1, more than 10 µM.

For `FC(F)(F)c1ccc2c(c1)nc(N1CCNCC1)c1nccn12` [Example 183, 4-(piperazin-1-yl)-7-(trifluoromethyl)imidazo[1,2-a]quinoxaline hydrochloride], the EC50 at human H4 and on human H1 was more than 10 µM in each case.

Take `Fc1cc2nc(N3CCNCC3)c3nncn3c2cc1Br` [Example 184, 8-bromo-7-fluoro-4-(piperazin-1-yl)-[1,2,4]triazolo[4,3-a]quinoxaline]: the concentration for a half-maximal effect (EC50) was less than 10 µM on human H4 (setting [1]) and more than 10 µM at human H1.

`Fc1cc2nc(N3CCNCC3)c3nnnn3c2cc1Cl` [Example 188, 8-chloro-7-fluoro-4-(piperazin-1-yl)tetrazolo[1,5-a]quinoxaline]: the concentration giving a half-maximal response (EC50) on human H4 (setting [1]) is less than 10 µM; at human H1, more than 10 µM.

In the case of `Cc1ccc2nc(N3CCNCC3)c3nncn3c2c1` [Example 22, 8-Methyl-4-(piperazin-1-yl)-[1,2,4]triazolo[4,3-a]quinoxaline], the concentration giving a half-maximal response (EC50) on human H4 (setting [1]) is less than 10 µM; at human H1, more than 10 µM.

With `Cc1nc2c3cc(F)c(C(F)(F)F)cc3nc(N3CCNCC3)n2n1` [Example 130, 9-fluoro-2-methyl-5-(piperazin-1-yl)-8-(trifluoromethyl)-[1,2,4]triazolo[1,5-c]quinazoline hydrochloride], the EC50 on human H4 (setting [1]) is less than 10 µM; on human H1, more than 10 µM.

In the case of `CN1CCN(c2nc3cc(F)c(C(F)(F)F)cc3n3nnnc23)CC1` [Example 187, 7-fluoro-4-(4-methylpiperazin-1-yl)-8-(trifluoromethyl)tetrazolo[1,5-a]quinoxaline], the EC50 on human H4 (setting [1]) was less than 10 µM; on human H1 it was more than 10 µM.

Take `Cc1nc2c(N3CCNCC3)nc3cc(F)c(F)cc3c2o1` [Example 146, 7,8-difluoro-2-methyl-4-(piperazin-1-yl)oxazolo[4,5-c]quinoline]: the EC50 at human H4 (setting [1]) and on human H1 was less than 10 µM throughout.

For `Clc1ccc2nc(C3CCNCC3)c3nncn3c2c1` [Example 3, 8-Chloro-4-(piperidin-4-yl)-[1,2,4]triazolo[4,3-a]quinoxaline], the EC50 on human H4 (setting [1]) and at human H1 was more than 10 µM in each case.

As for `CN1CCN(c2nc3ccc(Cl)cc3c3ccoc23)CC1` [Example 147, 8-Chloro-4-(4-methylpiperazin-1-yl)furo[2,3-c]quinoline], the EC50 on human H4 (setting [1]) is less than 10 µM; on human H1, more than 10 µM.

As to `CN1CCN(c2nc3ccccc3n3cnnc23)CC1` [Example 58, 4-(4-methylpiperazin-1-yl)-[1,2,4]triazolo[4,3-a]quinoxaline], the concentration giving a half-maximal response (EC50) on human H4 (setting [1]) is less than 10 µM; at human H1, more than 10 µM.

As to `CCc1nnc2c(N3CCN(C)CC3)nc3ccc(Cl)cc3n12` [Example 86, 8-chloro-1-ethyl-4-(4-methylpiperazin-1-yl)-[1,2,4]triazolo[4,3-a]quinoxaline], the EC50 at human H4 (setting [1]) was less than 10 µM; on human H1, more than 10 µM.

With `Clc1ccc2nc(NC3CCNCC3)c3nncn3c2c1` [Example 73, 8-chloro-N-(piperidin-4-yl)-[1,2,4]triazolo[4,3-a]quinoxalin-4-amine], the half-maximal effective concentration (EC50) on human H4 (setting [1]) and on human H1 was more than 10 µM each time.

`CN1CCN(c2nc3cc(Br)c(F)cc3n3cnnc23)CC1` [Example 199, 7-bromo-8-fluoro-4-(4-methylpiperazin-1-yl)-[1,2,4]triazolo[4,3-a]quinoxaline]: the EC50 on human H4 (setting [1]) is less than 10 µM; on human H1, more than 10 µM.

On to `Cn1cnc2c(N3CCNCC3)nc3ccc(Cl)cc3c21` [Example 158, 8-Chloro-1-methyl-4-(piperazin-1-yl)-1H-imidazo[4,5-c]quinoline], for which the 50% effective concentration (EC50) at human H4 (setting [1]) and on human H1 was more than 10 µM each time.

As to `Cc1cc2nc(N3CCN(C)CC3)c3nncn3c2cc1F` [Example 36, 8-fluoro-7-methyl-4-(4-methylpiperazin-1-yl)-[1,2,4]triazolo[4,3-a]quinoxaline], the half-maximal effective concentration (EC50) was less than 10 µM on human H4 (setting [1]) and more than 10 µM at human H1.

For `Cc1nc2c3cc(Br)ccc3nc(N3CCN(C)CC3)n2n1` [Example 135, 9-bromo-2-methyl-5-(4-methylpiperazin-1-yl)-[1,2,4]triazolo[1,5-c]quinazoline], the 50% effective concentration (EC50) at human H4 (setting [1]) and at human H1 was less than 10 µM in each case.

On to `Fc1c(C(F)(F)F)ccc2nc(N3CCNCC3)c3nnnn3c12` [Example 172, 9-fluoro-4-(piperazin-1-yl)-8-(trifluoromethyl)tetrazolo[1,5-a]quinoxaline], for which the concentration giving a half-maximal response (EC50) at human H4 (setting [1]) is less than 10 µM; on human H1 it was more than 10 µM.

`CN1CCN(c2nc3cc(C(F)(F)F)c(Cl)cc3n3cnnc23)CC1` [Example 46, 8-Chloro-4-(4-methylpiperazin-1-yl)-7-(trifluoromethyl)-[1,2,4]triazolo[4,3-a]quinoxaline]: the values for the 50% effective concentration (EC50) at human H4 (setting [1]) and at human H1 were less than 10 µM and more than 10 µM, respectively.

`Fc1cc2nc(N3CCNCC3)c3nnnn3c2cc1C(F)(F)F` [Example 186, 7-fluoro-4-(piperazin-1-yl)-8-(trifluoromethyl)tetrazolo[1,5-a]quinoxaline]: the values for the 50% effective concentration (EC50) on human H4 (setting [1]) and at human H1 were less than 10 µM and more than 10 µM, respectively.

`Cc1nc2c(N3CCNCC3)nc3ccc(Cl)cc3c2[nH]1` [Example 163, 8-Chloro-2-methyl-4-piperazinylimidazo[4,5-c]quinoline]: the concentration giving a half-maximal response (EC50) on human H4 (setting [1]) and on human H1 was more than 10 µM in each case.

Take `Cc1nc2c3ccc(Cl)cc3nc(N3CCNCC3)n2n1` [Example 106, 8-Chloro-2-methyl-5-(piperazin-1-yl)-[1,2,4]triazolo[1,5-c]quinazoline]: the values for the EC50 at human H4 (setting [1]) and at human H1 were less than 10 µM and more than 10 µM, respectively.

As to `Cc1cc2c(cc1F)nc(N1CCNCC1)c1nncn12` [Example 35], the EC50 at human H4 (setting [1]) and at human H1 was more than 10 µM throughout.
